From patent publication US9604984B2, “5-chloro-2-difluoromethoxyphenyl pyrazolopyrimidine compounds, compositions and methods of use thereof” (Genentech, Inc., priority 2014, dated 2017)

Legend:
[1] = Clearance assay: mouse intravenous (IV) clearance; format: in vivo; settings: female BALB/c mice, single IV dose of 1 mg/kg
Text: In certain instances high systemic clearance of a drug substance may be of benefit. For example, in the treatment of pulmonary diseases it may be beneficial to have high drug concentrations in the lung, with lower concentrations in the bloodstream or peripheral organs. In such cases, it may be advantageous to administer a drug substance with high systemic clearance via the inhaled delivery route. This approach may maximize pharmacologic activity of the drug substance in the lung while minimizing the possibility of on-target toxicity elsewhere in the body. The functional groups appended to the 5-chloro-2-difluoromethoxyphenyl pyrazolopyrimidine scaffold affect systemic clearance.
Female BALB/c mice were obtained from Charles River Labs (Hollister, Calif. USA). Twelve animals were given a single IV dose of 1 mg/kg of compounds via the tail vein. A representative dose solution was prepared as follows: the compound was dissolved in a mixture of 5% dimethylsulfoxide (DMSO), 35% polyethylene glycol (PEG 400), and 60% water (v/v/v), respectively, and administered at a dosing volume of 5 mL/kg. Mice weighed approximately 20-25 g at the start of the study. […] PK data analysis was performed on mean plasma concentration-time data and PK parameters were determined by non compartmental methods using WinNonlin® Enterprise, version 5.2.1 (Pharsight Corporation; Mountain View, Calif.).

[2] = biological target: isolated recombinant JAK2 kinase domain (Homo sapiens (Human), UniProt O60674); assay: JAK2 enzyme assay (Caliper LabChip, peptide phosphorylation); format: biochemical; settings: 25 μM ATP
Procedure: (§1) JAK Enzyme Assays were carried out as follows:
(§2) The activity of the isolated recombinant JAK1 and JAK2 kinase domain was measured by monitoring phosphorylation of a peptide derived from JAK3 ([…] fluorescently labeled on the N-terminus with 5-carboxyfluorescein) using the Caliper LabChip® technology (Caliper Life Sciences, Hopkinton, Mass.). […] Reactions were incubated at 22° C. in 384-well polypropylene microtiter plates for 30 minutes and then stopped by addition of 25 μL of an EDTA containing solution (100 mM HEPES buffer (pH 7.2), 0.015% Brij-35, 150 mM EDTA), resulting in a final EDTA concentration of 50 mM. After termination of the kinase reaction, the proportion of phosphorylated product was determined as a fraction of total peptide substrate using the Caliper LabChip® 3000 according to the manufacturer's specifications.

[3] = biological target: isolated recombinant JAK1 kinase domain (Homo sapiens (Human), UniProt P23458); assay: JAK1 enzyme assay (Caliper LabChip, peptide phosphorylation); format: biochemical; settings: 25 μM ATP
Procedure: as §1, §2

Sequence of isolated recombinant JAK2 kinase domain (O60674 849-1124): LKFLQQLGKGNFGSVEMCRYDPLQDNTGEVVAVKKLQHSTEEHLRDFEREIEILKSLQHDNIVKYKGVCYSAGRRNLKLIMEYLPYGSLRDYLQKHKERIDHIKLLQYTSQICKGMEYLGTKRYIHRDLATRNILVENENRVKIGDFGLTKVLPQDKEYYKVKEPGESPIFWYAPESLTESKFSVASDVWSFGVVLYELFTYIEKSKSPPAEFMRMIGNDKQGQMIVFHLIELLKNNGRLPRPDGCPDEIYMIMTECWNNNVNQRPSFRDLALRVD
Sequence of isolated recombinant JAK1 kinase domain (P23458 875-1153): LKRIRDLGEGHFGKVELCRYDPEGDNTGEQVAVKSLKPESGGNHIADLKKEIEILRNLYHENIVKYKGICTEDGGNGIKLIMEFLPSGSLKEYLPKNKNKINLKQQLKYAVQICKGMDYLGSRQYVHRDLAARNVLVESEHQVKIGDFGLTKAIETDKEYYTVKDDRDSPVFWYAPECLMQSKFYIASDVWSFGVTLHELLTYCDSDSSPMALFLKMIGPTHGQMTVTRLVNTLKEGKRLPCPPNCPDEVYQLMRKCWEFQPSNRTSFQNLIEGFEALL

Row | SMILES | mouse IV clearance as % of mouse liver blood flow [1] | Ki [2] [nM] | Ki [3] [nM]
1 | CC(C)(O)Cn1cc(NC(=O)c2cnn3cccnc23)c(-c2cc(Cl)ccc2OC(F)F)n1 [compound i] | 6 % of mouse liver blood flow | – | –
2 | CNC(=O)[C@@H]1CCCN1CC1CCN(C(=O)Cn2cc(NC(=O)c3cnn4cccnc34)c(-c3cc(Cl)ccc3OC(F)F)n2)CC1 [Example 425, N-(3-(5-chloro-2-(difluoromethoxy)phenyl)-1-(2-(4-(((S)-2-(methylcarbamoyl)pyrrolidin-1-yl)methyl)piperidin-1-yl)-2-oxoethyl)-1H-pyrazol-4-yl)pyrazolo[1,5-a]pyrimidine-3-carboxamide] | – | 1.64 | 0.6
